Source: PubChem BioAssay AID330 (DTP/NCI, 2004)
Inconclusive results and toxic doses are left out. Rule for the calls: active = survival T/C of 150% or more; inactive = T/C below 125% in these data.

Tested on: P388 leukemia ip, CD2F1 mice, survival T/C
Assay: NCI In Vivo Anticancer Drug Screen. Data for tumor model P388 Leukemia (intraperitoneal) in CD2F1 (CDF1) mice
Details: endpoint: median survival time, higher = longer survival
In short: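 Mice carrying the transplanted tumor received test compound or vehicle. Survival was recorded in each group, and the value is the treated-group measurement divided by that of the vehicle-treated control group.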

[1] = dose: 50.0 mg/kg/injection, schedule: Q01DX009 (ip), vehicle: saline with Tween-80
[2] = dose: 100.0 mg/kg/injection, schedule: Q01DX009 (ip), vehicle: saline with Tween-80
[3] = dose: 50.0 mg/kg/injection, schedule: Q01DX005 (ip), vehicle: Klucel (hydroxypropylcellulose) (HPC)
[4] = dose: 100.0 mg/kg/injection, schedule: Q01DX005 (ip), vehicle: Klucel (hydroxypropylcellulose) (HPC)
[5] = dose: 200.0 mg/kg/injection, schedule: Q01DX005 (ip), vehicle: Klucel (hydroxypropylcellulose) (HPC)
[6] = dose: 50.0 mg/kg/injection, schedule: Q01DX009 (ip), vehicle: Klucel (hydroxypropylcellulose) (HPC)
[7] = dose: 100.0 mg/kg/injection, schedule: Q01DX009 (ip), vehicle: Klucel (hydroxypropylcellulose) (HPC)
[8] = dose: 200.0 mg/kg/injection, schedule: Q01DX009 (ip), vehicle: Klucel (hydroxypropylcellulose) (HPC)
[9] = dose: 200.0 mg/kg/injection, schedule: Q01DX009 (ip), vehicle: saline with Tween-80
[10] = dose: 50.0 mg/kg/injection, schedule: Q01DX005 (ip), vehicle: saline with Tween-80
[11] = dose: 100.0 mg/kg/injection, schedule: Q01DX005 (ip), vehicle: saline with Tween-80
[12] = dose: 200.0 mg/kg/injection, schedule: Q01DX005 (ip), vehicle: saline with Tween-80
[13] = dose: 60.0 mg/kg/injection, schedule: Q01DX005 (ip), vehicle: saline

Measured: T/C

CCOc1nc(N)nc(C)c1N=Nc1ccc(Br)cc1
inactive: dose: 60.0 mg/kg/injection, schedule: Q01DX005 (ip), vehicle: Klucel + Tween-80 100 % of control | dose: 120.0 mg/kg/injection, schedule: Q01DX005 (ip), vehicle: Klucel + Tween-80 104 % of control | dose: 240.0 mg/kg/injection, schedule: Q01DX005 (ip), vehicle: Klucel + Tween-80 99 % of control

C=C(C)c1cc(C(C)(C)C)cc(C(C)(C)O)c1S(C)(=O)=O
inactive: dose: 100.0 mg/kg/injection, schedule: Q04DX003 (ip), vehicle: Klucel (hydroxypropylcellulose) (HPC) 97 % of control | dose: 200.0 mg/kg/injection, schedule: Q04DX003 (ip), vehicle: Klucel (hydroxypropylcellulose) (HPC) 98 % of control | dose: 400.0 mg/kg/injection, schedule: Q04DX003 (ip), vehicle: Klucel (hydroxypropylcellulose) (HPC) 95 % of control

COc1ccccc1C1OCC(C)(C)N1C (stereo not drawn)
inactive: dose: 18.75 mg/kg/injection, schedule: Q01DX001 (ip), vehicle: saline sonified 100 % of control | dose: 37.5 mg/kg/injection, schedule: Q01DX001 (ip), vehicle: saline sonified 95 % of control | dose: 75.0 mg/kg/injection, schedule: Q01DX001 (ip), vehicle: saline sonified 110 % of control | dose: 75.0 mg/kg/injection, schedule: Q04DX003 (ip), vehicle: saline with Tween-80 105 % of control | dose: 150.0 mg/kg/injection, schedule: Q04DX003 (ip), vehicle: saline with Tween-80 105 % of control | dose: 300.0 mg/kg/injection, schedule: Q04DX003 (ip), vehicle: saline with Tween-80 100 % of control

CCCCN(CCCC)C(=N)OC
inactive: dose: 12.5 mg/kg/injection, schedule: Q01DX005 (ip), vehicle: suspension in saline 100 % of control | dose: 25.0 mg/kg/injection, schedule: Q01DX005 (ip), vehicle: suspension in saline 108 % of control | dose: 50.0 mg/kg/injection, schedule: Q01DX005 (ip), vehicle: saline 99 % of control | dose: 50.0 mg/kg/injection, schedule: Q01DX005 (ip), vehicle: suspension in saline 117 % of control

CSC(Cl)=NC(=O)C(=O)N=C(Cl)SC
inactive: [1] 96 % of control | [2] 89 % of control

CSC1=NN(C(C)=O)C(c2ccc3ccccc3n2)S1 (stereo not drawn)
inactive: [3] 95 % of control | [4] 89 % of control | [5] 99 % of control

N#Cc1nc2ccccc2n1OCc1ccccc1
inactive: [6] 97 % of control | [7] 107 % of control | [8] 102 % of control

Cc1c([N+](=O)[O-])cc(N)cc1S(=O)(=O)O
inactive: [3] 96 % of control | [4] 96 % of control | [5] 93 % of control

CC(C)C(NC(=O)CCNC(=O)OCc1ccccc1)C(=O)O (stereo not drawn)
inactive: [4] 102 % of control | [5] 100 % of control | dose: 400.0 mg/kg/injection, schedule: Q01DX005 (ip), vehicle: Klucel (hydroxypropylcellulose) (HPC) 96 % of control

Cc1cccn2c(CCCc3nnc4c(C)cccn34)nnc12
inactive: [1] 100 % of control | [2] 101 % of control | [9] 101 % of control

CC1=Nc2cc(N)nn2C(=O)C1
inactive: dose: 25.0 mg/kg/injection, schedule: Q01DX005 (ip), vehicle: saline with Tween-80 93 % of control | [10] 96 % of control | [11] 102 % of control | [12] 93 % of control

C=C(C)C1CC/C(C)=C/CCC2(C)OC2CC/C(CO)=C\C1O (stereo not drawn)
inactive: dose: 8.0 mg/kg/injection, schedule: Q01DX009 (ip), vehicle: saline with Tween-80 113 % of control | dose: 16.0 mg/kg/injection, schedule: Q01DX009 (ip), vehicle: saline with Tween-80 114 % of control | dose: 32.0 mg/kg/injection, schedule: Q01DX009 (ip), vehicle: saline with Tween-80 110 % of control | dose: 64.0 mg/kg/injection, schedule: Q01DX009 (ip), vehicle: saline with Tween-80 115 % of control

CCOc1ccc(C(CC)c2cc3c(cc2OCC)OCO3)cc1 (stereo not drawn)
inactive: dose: 60.0 mg/kg/injection, schedule: Q01DX005 (ip), vehicle: saline with Tween-80 100 % of control | dose: 120.0 mg/kg/injection, schedule: Q01DX005 (ip), vehicle: saline with Tween-80 111 % of control | dose: 240.0 mg/kg/injection, schedule: Q01DX005 (ip), vehicle: saline with Tween-80 110 % of control

Cc1cc(C)c2ccc(C)c(N)c2n1
inactive: [10] 99 % of control | [11] 92 % of control | [12] 99 % of control

O=C(NC(CCS(=O)(=O)NO)C(=O)OCc1ccccc1)OCc1ccccc1 (stereo not drawn)
inactive: dose: 12.5 mg/kg/injection, schedule: Q01DX009 (ip), vehicle: other 100 % of control | dose: 25.0 mg/kg/injection, schedule: Q01DX009 (ip), vehicle: other 95 % of control | dose: 50.0 mg/kg/injection, schedule: Q01DX009 (ip), vehicle: other 109 % of control | dose: 100.0 mg/kg/injection, schedule: Q01DX009 (ip), vehicle: other 95 % of control | dose: 200.0 mg/kg/injection, schedule: Q01DX009 (ip), vehicle: other 92 % of control

COC(=O)NC1CC1C(=O)OC (stereo not drawn)
inactive: dose: 100.0 mg/kg/injection, schedule: Q01DX002 (ip), vehicle: saline 104 % of control | dose: 200.0 mg/kg/injection, schedule: Q01DX002 (ip), vehicle: saline 99 % of control | dose: 400.0 mg/kg/injection, schedule: Q01DX002 (ip), vehicle: saline 102 % of control

CCCCCCCCCCCCCCCN1CCS(=O)(=O)CC1
inactive: [6] 98 % of control | [7] 94 % of control | [8] 94 % of control

COc1ccc(OC)c2c(NCCNCCO)cc(NCCNCCO)nc12
inactive: dose: 15.0 mg/kg/injection, schedule: Q01DX005 (ip), vehicle: saline 100 % of control | dose: 30.0 mg/kg/injection, schedule: Q01DX005 (ip), vehicle: saline 95 % of control | [13] 97 % of control

CC(C)N(CCO)CC(O)Cn1cnc2ncnc(N)c21 (stereo not drawn)
inactive: [13] 94 % of control | dose: 120.0 mg/kg/injection, schedule: Q01DX005 (ip), vehicle: saline 97 % of control | dose: 240.0 mg/kg/injection, schedule: Q01DX005 (ip), vehicle: saline 94 % of control

CC1=C2C(O)C(=O)OC3CC4C(C)(C)C(=O)CCC4(C)C(CC1)C23C (stereo not drawn)
inactive: dose: 0.1 mg/kg/injection, schedule: Q01DX009 (ip), vehicle: Klucel (hydroxypropylcellulose) (HPC) 97 % of control | dose: 0.21 mg/kg/injection, schedule: Q01DX009 (ip), vehicle: Klucel (hydroxypropylcellulose) (HPC) 98 % of control | dose: 0.43 mg/kg/injection, schedule: Q01DX009 (ip), vehicle: Klucel (hydroxypropylcellulose) (HPC) 100 % of control | dose: 0.87 mg/kg/injection, schedule: Q01DX009 (ip), vehicle: Klucel (hydroxypropylcellulose) (HPC) 102 % of control | dose: 1.75 mg/kg/injection, schedule: Q01DX009 (ip), vehicle: Klucel (hydroxypropylcellulose) (HPC) 98 % of control

O=C(C1=C(Nc2ccccc2)CCC1)c1ccccc1
inactive: dose: 50.0 mg/kg/injection, schedule: Q01DX009 (ip), vehicle: saline 116 % of control | dose: 100.0 mg/kg/injection, schedule: Q01DX009 (ip), vehicle: saline 106 % of control | dose: 200.0 mg/kg/injection, schedule: Q01DX009 (ip), vehicle: saline 106 % of control

O=C(O)C1C2C=CC(O2)C1C(=O)Nn1cccc1 (stereo not drawn)
inactive: [6] 99 % of control | [7] 94 % of control | [8] 95 % of control

O=C1Cc2ccccc2N1C1c2ccccc2C=Cc2ccccc21
inactive: [1] 95 % of control | [2] 86 % of control | [9] 89 % of control
